We go through eight molecules from PubChem BioAssay (NCI).

Common to all, as to assay: NCI anticancer screen, dose series, 48 h
Assay [1] has as its system A498 renal.
Assay [2] concerns BT-549 breast.
For assay [3], the system named is EKVX NSCLC.
Assay [4] deals with HT29 colon.
The test system of assay [5] is KM12 colon.
For assay [6], the system named is OVCAR-4 ovarian.
The test system of assay [7] is SF-539 CNS.
Assay [8] concerns SNB-19 CNS.
Assay [9] relates to SNB-75 CNS.
In assay [10] the test system is TK-10 renal.

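Exposure lasted 48 hours, with cells grown in 96-well plates and compounds tested at five concentrations. GI50: concentration for 50% inhibition of growth. TGI: total growth inhibition.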 Where only a bound is given, the exact number is not on record here.

For the molecule `COc1ccc2c(c1)CCC1C2CC[C@@]2(C)C1CC1=CC(COC(C)=O)C3C(=O)c4ccccc4C(=O)C3C12` (some centres undefined), the GI50 in assay [1] is above 100 µM; in assay [2], above 100 µM; in assay [3], above 100 µM; in assay [4], 94.9 µM; in assay [5] it was above 100 µM; in assay [6], above 100 µM. Further, the GI50 was above 100 µM in assay [7], above 100 µM in [8], 36.3 µM in assay [9] and above 100 µM in assay [10]. The TGI in [1], in assay [2], in assay [3], in assay [4], in assay [5] and in assay [6] was above 100 µM throughout. For the same molecule, the TGI in assay [7], in assay [8], in assay [9] and in assay [10] was above 100 µM throughout.

In the case of `Cc1ccc(Cl)cc1Nc1nc(C(F)(F)F)ccc1C(=O)N1CCN(c2ccc(F)cc2)CC1`, the GI50 is 6.03 µM in [1]; 12.8 µM in assay [2]; 12.8 µM in assay [3]; 10.7 µM in [4]; 11.3 µM in assay [5]; 10.8 µM in assay [6]. Also, the results for the GI50 in assay [7], in assay [8] and in assay [10] were 14.8 µM, 14.9 µM and 11.2 µM, respectively. In addition, the TGI stood at 20.2 µM in assay [1]; 26.3 µM in [2]; 45.4 µM in assay [3]; 23.9 µM in assay [4]; 23.4 µM in assay [5]; 27.9 µM in assay [6]. Also, the TGI in [7] stood at 30.2 µM; in assay [8], 30.5 µM; in [9], 14.2 µM; in [10], 26.4 µM.

For `O=c1c2ccccc2[se]n1-c1cccnc1`, the TGI was 61.9 µM in assay [1]; 84.6 µM in assay [2]; above 100 µM in assay [3]; above 100 µM in assay [4]; above 100 µM in [5]; above 100 µM in [6]. In addition, the TGI in [7] was 56.5 µM; in assay [8], above 100 µM; in assay [9], 43.8 µM; in assay [10], 50.1 µM.

`COC(=O)/C=C/c1cc(O)c2oc(-c3ccc(O)c(O)c3)c(C(=O)OC)c2c1`: the GI50 is 1.95 µM in [1]; 1.5 µM in [2]; 3.3 µM in assay [3]; 3.24 µM in [4]; 0.439 µM in assay [5]; 0.901 µM in [6]. Further, the GI50 in [7] is 0.159 µM; in assay [8], 0.356 µM; in assay [9], 0.0376 µM; in assay [10], 3.89 µM. The TGI in assay [1] came to 9.58 µM; in [2], 11.9 µM; in assay [3] it was 16.6 µM; in [4], 11.5 µM; in assay [5] it was 9.38 µM; in [6], 12 µM. The TGI in assay [7] was determined as 1.96 µM; in assay [8] it was 14.2 µM; in [9], 1.41 µM; in assay [10], 16.9 µM.

As for `COc1ncnc(C2CC2)c1-c1ncc2cnn(Cc3ccc(-c4nc(C(F)(F)F)cn4C(C)C)cc3)c2n1`, the GI50 is 24.5 µM in [1]; 21 µM in assay [2]; 19 µM in [3]; 17.9 µM in assay [4]; 23.4 µM in assay [5]; 14.2 µM in assay [6]. Moreover, the GI50 was 16.1 µM in [7], 22 µM in [8], 5.36 µM in assay [9] and 29 µM in assay [10]. In addition, the TGI in assay [1] is above 100 µM; in assay [2] it was 80.5 µM; in [3], 95.3 µM; in assay [4], above 100 µM; in assay [5], 81.8 µM; in assay [6], 75.6 µM. The TGI in assay [7] is 39 µM; in assay [8] it was 69.5 µM; in [9], 53.6 µM; in assay [10], above 100 µM.

On to `Cc1ccc(C(SCC(N)C(=O)O)(c2ccccc2)c2ccc(C)cc2)cc1` (centres undefined), for which the GI50 in [1] was 0.225 µM; in [2], 0.247 µM; in assay [3], 0.357 µM; in [4], 0.334 µM; in [5], 0.219 µM; in assay [6], 13.4 µM. Further, the GI50 in [7] was 0.129 µM; in assay [8], 0.476 µM; in [9] it was 0.334 µM; in [10] it was 11.2 µM. For the same molecule, the TGI was 4.5 µM in assay [1]; 21.9 µM in assay [2]; above 46.8 µM in assay [3]; 3.38 µM in assay [4]; 12.8 µM in [5]; 72.7 µM in assay [6]. Further, the TGI stood at 2.47 µM in [7], 39.3 µM in assay [8], 17.7 µM in assay [9] and 30.9 µM in [10].

Consider `C=C(C)C(CC=C(C)C)CC12CC(CC=C(C)C)C(C)(C)C(CC=C(C)C)(C(=O)C(Cc3ccc(O)c(O)c3)=C1O)C2=O` (centres undefined), for which the TGI in [1], in assay [2], in assay [3], in assay [4], in assay [5] and in [6] was above 100 µM throughout. Further, the TGI in assay [7], in assay [8], in assay [9] and in assay [10] was above 100 µM throughout.

With `Cn1c(=O)c2c(nc(Nc3cc(=O)[nH]c(=O)[nH]3)n2Cc2ccccc2)n(C)c1=O`, the GI50 in [1] is 7.97 µM; in [2], 69.4 µM; in assay [3], 56.6 µM; in assay [4], above 100 µM; in assay [5], above 100 µM; in assay [6], 46.9 µM. Moreover, the GI50 in [7] is above 100 µM; in [8], above 100 µM; in assay [9], 12.5 µM; in assay [10] it was above 100 µM. Further, the TGI in assay [1], in assay [2], in assay [3], in assay [4], in [5] and in assay [6] was above 100 µM throughout. Moreover, the TGI in assay [7], in assay [8], in assay [9] and in [10] was above 100 µM each time.
